Experimental data reported in ChEMBL document CHEMBL5214893, “Saponins from Saffron Corms Inhibit the Gene Expression and Secretion of Pro-Inflammatory Cytokines” (J Nat Prod, 2021).
The source made the active and inactive calls.

Assays:
Format in all cases: functional, cell-based
Conditions in all cases: time 48.0 hrs
HaCaT [1] = assay: […] of TNF-alpha/IFN-gamma induced MCP-1 expression in human HaCaT cells at 20 uM preincubated for 24 hrs followed by stimulation and measured after […] by ELISA analysis
HaCaT [2] = assay: Downregulation of TNF-alpha/IFN-gamma induced RANTES expression in human HaCaT cells at 20 uM preincubated for 24 hrs followed by stimulation and measured after […] by ELISA analysis
HaCaT [3] = assay: Effect on TNF-alpha/IFN-gamma-induced RANTES secretion in human HaCaT cells at 20 uM preincubated for 24 hrs followed by stimulation and measured after […] by ELISA analysis
HaCaT [4] = assay: Effect on TNF-alpha/IFN-gamma induced- MCP-1 secretion in human HaCaT cells at 1 uM preincubated for 24 hrs followed by stimulation and measured after […] by ELISA analysis
HaCaT [5] = assay: Effect on TNF-alpha/IFN-gamma-induced RANTES secretion in human HaCaT cells at 1 uM preincubated for 24 hrs followed by stimulation and measured after […] by ELISA analysis

Measured: Activity

C[C@]12CCC(=O)C=C1CC[C@@H]1[C@@H]2[C@@H](O)C[C@@]2(C)[C@H]1CC[C@]2(O)C(=O)CO
active: HaCaT [1] | HaCaT [2] | HaCaT [3]

C[C@@H]1O[C@@H](OCCCCCCC(=O)CCCCCCC(CC(=O)O[C@@H]2[C@H](O)[C@@H](O[C@@H]3O[C@@H](C)[C@H](O[C@@H]4OC[C@@H](O)[C@H](O)[C@H]4O)[C@@H](O)[C@H]3O[C@@H]3OC[C@H](O)[C@H](O)[C@H]3OC3O[C@H](CO)[C@H](O)[C@H](O)[C@H]3O)[C@H](OC(=O)[C@]34CCC(C)(C)C[C@H]3C3=CC[C@@H]5[C@@]6(C)CC[C@H](O[C@@H]7O[C@H](C(=O)O)[C@H](O)[C@H](O)[C@H]7O)C(C)(C)[C@@H]6CC[C@@]5(C)[C@]3(C)C[C@H]4O)O[C@@H]2C)O[C@H]2O[C@H](C)[C@@H](O)[C@H](O)[C@@H]2O)[C@H](O)[C@H](O)[C@H]1O (stereo partly specified)
not listed: HaCaT [3]
active: all other assays above

C[C@@H]1O[C@@H](OCCCCCCC(=O)CCCCCCC(CC(=O)O[C@@H]2[C@H](O)[C@@H](O[C@@H]3O[C@@H](C)[C@H](O[C@@H]4OC[C@@H](O)[C@H](O)[C@H]4O)[C@@H](O)[C@H]3O[C@@H]3OC[C@H](O)[C@H](O)[C@H]3OC3O[C@H](CO)[C@H](O)[C@H](O)[C@H]3O)[C@H](OC(=O)[C@]34CCC(C)(C)C[C@H]3C3=CC[C@@H]5[C@@]6(C)CC[C@H](O[C@@H]7O[C@H](C(=O)O)[C@@H](O)[C@H](O)[C@H]7O)C(C)(C)[C@@H]6CC[C@@]5(C)[C@]3(C)C[C@H]4O)O[C@@H]2C)O[C@H]2O[C@H](C)[C@@H](O)[C@H](O)[C@@H]2O)[C@H](O)[C@H](O)[C@H]1O (stereo partly specified)
not listed: HaCaT [3]
active: all other assays above
